# Legend:
# [1] = target: T1, P2X3 (UniProt P56373); experiment: FLIPR intracellular calcium assay, P2X3; assay type: cell-based, human or rat; conditions: agonist at EC75, species of receptor not given
# T1 sequence (P56373 1-397): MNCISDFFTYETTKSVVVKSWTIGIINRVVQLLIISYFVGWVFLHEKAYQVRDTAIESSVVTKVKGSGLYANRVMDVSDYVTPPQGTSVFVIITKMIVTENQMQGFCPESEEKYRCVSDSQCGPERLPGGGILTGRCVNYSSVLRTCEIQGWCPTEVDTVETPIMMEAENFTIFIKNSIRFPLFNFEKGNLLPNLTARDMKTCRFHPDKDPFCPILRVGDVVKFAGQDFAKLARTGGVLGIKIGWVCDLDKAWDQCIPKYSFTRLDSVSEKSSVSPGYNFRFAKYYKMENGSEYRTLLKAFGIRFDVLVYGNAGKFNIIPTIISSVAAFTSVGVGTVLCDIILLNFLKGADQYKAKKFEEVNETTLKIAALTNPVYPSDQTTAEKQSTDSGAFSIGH
# From the text: (§1) The FLIPR® assay utilizes cells which express human or rat P2X3 or P2X2/3 receptors. Recombinant cells expressing hP2X3 (Cat #6188) and hP2X2/3 (Cat #6179) were procured from Chantest Corp. Rat P2X2 (NCBI Accession No: U14414) was amplified by PCR from PC12 cDNA (a rat adrenal medulla cell line). The PCR product obtained containing the protein coding sequence of rat P2X2 was cloned into EcoRV-digested and dephosphorylated vector pIRES-puro3 within the multiple cloning site (MCS). See, FIG. 1A.
# (§2) Cryo-vial containing 6×10^6 cells (human P2X3-HEK/human P2X2/3-TRex293/rat P2X2/3-TRex293/rat P2X3 TRex-CHO) was thawed in a 37° C. water bath. Cells were suspended in 20 mL of respective cell plating media (See annexure for composition) in a 50 mL centrifuge tube. The cell viability was checked with the help of Trypan Blue dye. Upon washing, cells were plated in a black 384-well clear bottomed, sterile poly-D-lysine coated plate such that, each well contained 10,000 cells (15,000/well for hP2X3) in 30 μL cell plating media. The plate was incubated in a 5% CO2 incubator at 37° C. for 24 h.
# (§3) The next day, prior to the assay, the cell plating media was removed from each well by decanting and gentle tapping. Thirty μL of FLIPR Calcium 4 dye solution was added to each well. The plate was incubated at 37° C. for 45 min (60 min for hP2X3). The plate was next equilibrated at room temperature for 15 minutes before placing it in a 384 well FLIPR for the assay.
# (§4) Compounds were dissolved in DMSO and serially diluted following 11 point half log (3.16 fold) dilution with a starting concentration of 2 mM. Dilutions were mixed with assay buffer just before performing the assay.
# (§5) Compounds were added to the respective wells of the assay-ready cell plate with the help of the FLIPR and fluorescence readings were captured for 5 min to observe any possible agonistic property of the compounds. The plate was then incubated at room temperature for 15 min. The cells were stimulated with respective agonist EC75 concentration and the fluorescence readings were captured for another 5 min by FLIPR. The difference in fluorescence readings in presence of the compounds were compared with that of the control wells (wells having no compound) to calculate the inhibitory potency of the compounds. The IC50 values of the compounds were determined using the Graph pad Prism software.
# [2] = target: T2, P2X2/3 (UniProt P56373+Q9UBL9); experiment: FLIPR intracellular calcium assay, P2X2/3; assay type: cell-based, human or rat; conditions: agonist at EC75, species of receptor not given
# T2 construct: hP2X2/3 (Cat #6179)
# T2 sequence (P56373 1-397): T1 sequence (P56373 1-397)
# T2 sequence (Q9UBL9 1-471): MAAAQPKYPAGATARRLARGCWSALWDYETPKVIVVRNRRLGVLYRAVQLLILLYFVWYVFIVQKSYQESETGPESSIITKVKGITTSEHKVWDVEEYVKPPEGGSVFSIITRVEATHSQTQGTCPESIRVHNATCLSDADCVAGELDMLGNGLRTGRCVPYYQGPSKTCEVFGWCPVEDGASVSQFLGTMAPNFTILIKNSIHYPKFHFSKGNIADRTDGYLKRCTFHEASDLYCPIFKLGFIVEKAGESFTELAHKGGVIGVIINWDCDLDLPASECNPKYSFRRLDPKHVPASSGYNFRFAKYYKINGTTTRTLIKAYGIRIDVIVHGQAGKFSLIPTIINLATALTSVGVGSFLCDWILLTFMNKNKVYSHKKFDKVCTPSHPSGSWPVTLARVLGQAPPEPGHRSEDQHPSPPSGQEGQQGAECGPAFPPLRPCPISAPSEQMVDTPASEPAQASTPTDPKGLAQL
# From the text: as §1, §2, §3, §4, §5
# [3] = test system: formalin-induced hind limb flinches; experiment: Formalin induced pain (Automated Nociception Analyzer test); assay type: in vivo; conditions: rat, oral gavage 100 mg/kg, 30 min before footpad formalin injection
# Experimental: Male Sprague Dawley rats of young adult age group and body weight range of 200-250 g were included in the study. Animals were housed under a 12 h light/dark cycle with food and water ad libitum. Animals were acclimatized in the observation chambers of Automated Nociception Analyzer (ANA) for 45-60 min, twice daily for two days prior to the study day. On the day of the study, metal bands were glued to the plantar surface of the right hind paw of each animal enrolled in the study set and kept in plastic observation chambers for 10-15 min. Formalin injection was done in the animals after 0.5 or 1 h of oral treatment with test compound or vehicle (20% polyethylene glycol, 1% TweenTM 80 reagent, 79% water). Formalin injection of the animals was done with 50 μL of 2.5% formalin (freshly prepared from formaldehyde solution, Sigma, USA, Cat # F8775) injected subcutaneously in to the dorsum of right hind paw. Animals were placed back to their respective recording chambers of ANA immediately after injection. […] count data for each animal was recorded from 1 to 60 min post formalin injection, using ANA motion analysis software. The study was analyzed in 2 phases, the early phase extended from 0-10 min and second phase extended from 11-60 min post formalin injection. The data was collected in 5 min time bins and the counts of each bin were added up for total count of the phase. […]
# [4] = test system: acetic acid induced writhing (visceral pain); experiment: Acetic acid induced writhing test; assay type: in vivo; conditions: mouse, oral gavage 20, 40 and 60 mg/kg, 30 min before i.p. acetic acid, counted 15 min
# Experimental: Swiss albino mice of 30-40 g were included in the study. The mice were given an intraperitoneal injection of 0.7% v/v acetic acid solution at an injection volume of 10 mL/kg, 30 min after oral administration of vehicle or test article control. Test articles were administered, typically, at doses between 20 and 60 mg/kg. The mice were placed individually into glass chambers. The number of writhes produced in these animals was counted for 15 min following acetic acid administration. For scoring purposes writhing was indicated by stretching of the abdomen with simultaneous stretching of at least one hind limb. See, e.g., FIG. 4. Statistical analysis was done with One way ANOVA followed by Dunnett's multiple comparison tests. Comparison was done between treatment groups and vehicle with respect to total number of writhes and p<0.05 was considered statistically significant. Each group comprised of 6 animals.
IC50 [1] [nM],IC50 [2] [nM],Structure (SMILES),second phase flinching response to formalin [3],pain responses (writhes) after acetic acid [4]
1 to 100,100 to 1000,Cc1ccc(-c2cnc3c(Nc4ccccc4)cc(C(=O)NCc4ccc(C)[n+]([O-])c4)cn23)s1 [Example 89],–,–
1 to 100,–,CCCSc1cnc2c(N3CCC(C)CC3)cc(C(=O)NCc3ccc(C)[n+]([O-])c3)cn12 [Example 114],–,–
1 to 100,1 to 100,Cc1ccc(-c2cnc3c(N4CCC(C)(C)CC4)cc(C(=O)NCc4ccc(C)[n+]([O-])c4)cn23)s1 [Example 122],–,–
100 to 1000,100 to 1000,Cc1ccc(-c2cnc3c(NC4CCCCC4)cc(C(=O)NCc4ccc(C(F)(F)F)[n+]([O-])c4)cn23)s1 [Example 124],–,–
100 to 1000,100 to 1000,Cc1cnc(-c2cnc3c(N4CCC(C)CC4)cc(C(=O)NCc4ccc(C)[n+]([O-])c4)cn23)s1 [Example 125],–,–
> 10000,1 to 100,Cc1ccc(-c2cnc3c(N4CCC(F)CC4)cc(C(=O)NCc4ccc(C)[n+]([O-])c4)cn23)s1 [Example 127],–,–
1 to 100,100 to 1000,Cc1ccc(-c2cnc3c(N4CCC(C(F)(F)F)CC4)cc(C(=O)NCc4ccc(C)[n+]([O-])c4)cn23)s1 [Example 131],–,–
1000 to 10000,100 to 1000,Cc1ccc(-c2cnc3c(N4CCC(C)CC4)cc(C(=O)NCc4ccc[n+]([O-])c4)cn23)s1 [Example 147],–,–
> 10000,1 to 100,COc1ccc(CNC(=O)c2cc(-n3nnnc3C3CCC3)c3ncc(-c4ccc(C)s4)n3c2)cn1 [Example 163],–,–
1 to 100,1 to 100,Cc1ccc(-c2cnc3c(-n4nnnc4C4CCC4)cc(C(=O)N[C@@H](C)c4nnc[nH]4)cn23)s1 [Example 165],–,–

# The remaining lines, values behind:
Structure (SMILES),IC50 [1] [nM],IC50 [2] [nM],second phase flinching response to formalin [3],pain responses (writhes) after acetic acid [4]
"CCCCc1cnc2c(N3CCC(C)CC3)cc(C(=O)N[C@@H](C)c3nnc[nH]3)cn12 [Example 9, (S)—N-(1-(4H-1,2,4-Triazol-3-yl)ethyl)-3-butyl-8-(4-methylpiperidin-1-yl)imidazo[1,2-a]pyridine-6-carboxamide]",1000 to 10000,1000 to 10000,–,–
CCc1cnnn1-c1cc(C(=O)NCc2ccc(C)nc2)cn2c(-c3ccc(C)s3)cnc12 [Example 22],–,–,attenuated,clear dose-related reduction
Cc1ccc(-c2cnc3c(N4CCC(C)CC4)cc(C(=O)NCc4ccc(C)[n+]([O-])c4)cn23)s1 [Example 117],1 to 100,1 to 100,–,–
Cc1ccc(CNC(=O)c2cc(N3CCC(C)CC3)c3ncc(-c4ccc(Cl)s4)n3c2)c[n+]1[O-] [Example 119],1 to 100,100 to 1000,–,–
Cc1ccc(-c2cnc3c(NC4CCCCC4)cc(C(=O)NCc4ccc(C)[n+]([O-])c4)cn23)s1 [Example 120],1 to 100,1 to 100,–,–
Cc1ccc(-c2cnc3c(N4CCC(F)(F)CC4)cc(C(=O)NCc4ccc(C)[n+]([O-])c4)cn23)s1 [Example 123],> 10000,1 to 100,–,–
Cc1ccc(-c2cnc3c(N(C)C4CCCCC4)cc(C(=O)NCc4ccc(C)[n+]([O-])c4)cn23)s1 [Example 126],> 10000,1 to 100,–,–
Cc1ccc(-c2cnc3c(N4CCC(CF)CC4)cc(C(=O)NCc4ccc(C)[n+]([O-])c4)cn23)s1 [Example 132],1 to 100,1 to 100,–,–
Cc1ccc(-c2cnc3c(N4CCC(F)(F)CC4)cc(C(=O)N[C@@H](C)C4=NN=CC4)cn23)s1 [Example 143],1000 to 10000,100 to 1000,–,–
Cc1ccc(-c2cnc3c(-n4nnnc4C4CC4)cc(C(=O)N[C@@H](C)c4nnc[nH]4)cn23)s1 [Example 167],1 to 100,100 to 1000,–,–

# Source: patent US9908879B2, “P2X3 and/or P2X2/3 compounds and methods” (Asana Biosciences, LLC, priority 2013, dated 2018)
